According to ChEMBL document CHEMBL1145486, “Molecular determinants for the selective inhibition of cyclooxygenase-2 by lumiracoxib” (J Biol Chem, 2007):

molecular target: T1, Prostaglandin G/H synthase 1 (Ovis aries) (UniProt P05979); test: Inhibition of ovine COX1 at 4 uM for 17 mins pre-incubated before addition of [1-14C]arachidonic acid; settings: not given
T1 sequence (whole entry): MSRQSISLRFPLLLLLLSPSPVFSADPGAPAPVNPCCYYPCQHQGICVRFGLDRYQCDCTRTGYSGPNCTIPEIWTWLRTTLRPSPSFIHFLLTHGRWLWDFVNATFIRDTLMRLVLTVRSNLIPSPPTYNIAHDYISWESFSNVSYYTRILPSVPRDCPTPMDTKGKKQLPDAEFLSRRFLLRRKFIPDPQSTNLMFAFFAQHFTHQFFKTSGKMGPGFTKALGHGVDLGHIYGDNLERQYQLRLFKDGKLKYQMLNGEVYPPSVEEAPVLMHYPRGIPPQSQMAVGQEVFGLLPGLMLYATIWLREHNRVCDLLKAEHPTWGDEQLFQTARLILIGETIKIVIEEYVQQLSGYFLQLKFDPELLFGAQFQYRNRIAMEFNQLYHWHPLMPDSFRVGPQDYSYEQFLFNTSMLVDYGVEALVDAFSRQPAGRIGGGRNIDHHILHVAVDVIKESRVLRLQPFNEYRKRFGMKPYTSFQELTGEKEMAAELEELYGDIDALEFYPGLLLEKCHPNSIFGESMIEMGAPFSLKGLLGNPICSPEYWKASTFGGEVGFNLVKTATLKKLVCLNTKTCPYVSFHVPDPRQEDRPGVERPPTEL

inhibition [%] | SMILES
< 20 | O=C(O)Cc1ccccc1Nc1ccccc1
< 20 | O=C(O)Cc1ccccc1Nc1ccccc1Cl
< 20 | Cc1ccc(Nc2ccccc2Cl)c(CC(=O)O)c1

Second part, the molecule before the results:

SMILES | inhibition [%]
Cc1ccc(Nc2c(F)cccc2F)c(CC(=O)O)c1 | < 20
Cc1cccc(F)c1Nc1ccccc1CC(=O)O | < 20
Cc1ccc(Nc2ccccc2F)c(CC(=O)O)c1 | < 20

molecular target: T2, Prostaglandin G/H synthase 2 (Mus musculus, UniProt Q05769); settings: not given
T2 sequence (Q05769 whole entry): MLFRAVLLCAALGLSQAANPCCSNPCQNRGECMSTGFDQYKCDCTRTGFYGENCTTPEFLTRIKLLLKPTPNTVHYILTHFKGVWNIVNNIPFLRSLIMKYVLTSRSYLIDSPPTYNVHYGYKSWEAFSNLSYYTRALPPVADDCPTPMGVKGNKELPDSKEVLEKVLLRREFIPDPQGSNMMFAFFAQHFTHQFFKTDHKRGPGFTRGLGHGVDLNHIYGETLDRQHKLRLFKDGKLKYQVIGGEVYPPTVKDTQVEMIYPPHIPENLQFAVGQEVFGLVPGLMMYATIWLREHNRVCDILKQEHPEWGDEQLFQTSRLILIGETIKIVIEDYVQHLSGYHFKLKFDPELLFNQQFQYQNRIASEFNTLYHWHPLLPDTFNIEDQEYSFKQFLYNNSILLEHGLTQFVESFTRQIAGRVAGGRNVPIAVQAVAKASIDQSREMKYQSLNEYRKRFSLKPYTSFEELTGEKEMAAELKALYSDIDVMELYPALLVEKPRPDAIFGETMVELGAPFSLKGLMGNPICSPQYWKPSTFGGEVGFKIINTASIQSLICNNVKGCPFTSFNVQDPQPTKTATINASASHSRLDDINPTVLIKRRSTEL

IC50 [nM] | SMILES
33 | Cc1ccc(Nc2c(Cl)cc(Cl)cc2Cl)c(CC(=O)O)c1
48 | Cc1cccc(C)c1Nc1ccccc1CC(=O)O
1200 | O=C(O)Cc1ccccc1Nc1c(F)cccc1C(F)(F)F
241 | O=C(O)Cc1ccccc1Nc1c(Cl)cccc1C(F)(F)F

species: Mus musculus; test: Inhibition of mouse COX2 V349I mutant at 4 uM 20 mins pre-incubated before addition of [1-14C]arachidonic acid; assay type: functional; settings: not given

SMILES | inhibition [%]
O=C(O)Cc1ccccc1Nc1c(F)cccc1Cl | 70

tested on: not listed separately; test: Inhibition of mouse COX2 V349I mutant 20 mins preincubated before addition of [1-14C]arachidonic acid; settings: not given

IC50 [nM] | SMILES
54 | O=C(O)Cc1ccccc1Nc1c(F)cccc1Cl

species: Mus musculus; test: Inhibition of mouse COX2 V349I mutant pre-incubated before addition of [1-14C]arachidonic acid; settings: concentration not given here

inhibition [%] | SMILES
< 20 | O=C(O)Cc1ccccc1Nc1c(F)cccc1Cl

molecular target: T3, Prostaglandin G/H synthase 2 (Mus musculus) (UniProt Q05769); test: Inhibition of mouse COX2 at 4 uM for 17 mins pre-incubated before addition of [1-14C]arachidonic acid; settings: not given
T3 sequence (whole entry): T2 sequence (Q05769 whole entry)

inhibition [%] | SMILES
< 20 | Cc1ccc(Nc2c(F)cccc2F)c(CC(=O)O)c1
< 20 | Cc1cccc(F)c1Nc1ccccc1CC(=O)O
< 20 | Cc1ccc(Nc2ccccc2Cl)c(CC(=O)O)c1
< 20 | Cc1ccc(Nc2ccccc2F)c(CC(=O)O)c1

molecular target: T4, Prostaglandin G/H synthase 2 (Homo sapiens, UniProt P35354); settings: not given
T4 sequence (P35354 whole entry): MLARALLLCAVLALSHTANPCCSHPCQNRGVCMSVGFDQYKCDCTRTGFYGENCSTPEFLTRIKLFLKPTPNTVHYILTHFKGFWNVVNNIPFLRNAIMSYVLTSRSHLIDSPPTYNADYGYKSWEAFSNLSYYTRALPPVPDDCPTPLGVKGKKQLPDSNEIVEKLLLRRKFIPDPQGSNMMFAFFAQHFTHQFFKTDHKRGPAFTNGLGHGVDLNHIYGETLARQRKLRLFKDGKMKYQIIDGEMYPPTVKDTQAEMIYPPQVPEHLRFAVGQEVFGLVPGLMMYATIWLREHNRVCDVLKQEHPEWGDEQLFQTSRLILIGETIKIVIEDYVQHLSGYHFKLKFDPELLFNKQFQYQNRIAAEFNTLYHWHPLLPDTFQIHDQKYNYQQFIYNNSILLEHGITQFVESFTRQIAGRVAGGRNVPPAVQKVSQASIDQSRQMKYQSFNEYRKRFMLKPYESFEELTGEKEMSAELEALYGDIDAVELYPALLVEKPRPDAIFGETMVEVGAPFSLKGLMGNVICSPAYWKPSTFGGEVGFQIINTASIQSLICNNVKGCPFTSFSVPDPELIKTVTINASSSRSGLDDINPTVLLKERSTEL

IC50 [nM] | SMILES
28 | Cc1ccc(Nc2c(Cl)cc(Cl)cc2Cl)c(CC(=O)O)c1
47 | Cc1cccc(C)c1Nc1ccccc1CC(=O)O
629 | O=C(O)Cc1ccccc1Nc1c(F)cccc1C(F)(F)F
166 | O=C(O)Cc1ccccc1Nc1c(Cl)cccc1C(F)(F)F

molecular target: T5, Prostaglandin G/H synthase 1 (Ovis aries, UniProt P05979); test: (§1) Inhibition of ovine COX1 for 17 mins pre-incubated before addition of [1-14C]arachidonic acid; settings: not given
T5 sequence (P05979 whole entry): T1 sequence (whole entry)

IC50 [nM] | SMILES
77 | Cc1ccc(Nc2c(Cl)cc(Cl)cc2Cl)c(CC(=O)O)c1
234 | Cc1cccc(C)c1Nc1ccccc1CC(=O)O
696 | O=C(O)Cc1ccccc1Nc1c(Cl)cccc1C(F)(F)F

molecular target: T1, Prostaglandin G/H synthase 1 (Ovis aries); test: as §1; design: concentration or dose not given beside the values; settings: not given

inhibition [%] | SMILES
75 | Cc1ccc(Nc2c(Cl)cc(Cl)cc2Cl)c(CC(=O)O)c1
90 | Cc1cccc(C)c1Nc1ccccc1CC(=O)O
35 | O=C(O)Cc1ccccc1Nc1c(F)cccc1C(F)(F)F
80 | O=C(O)Cc1ccccc1Nc1c(Cl)cccc1C(F)(F)F
30 | O=C(O)Cc1ccccc1Nc1c(F)cccc1Cl

molecular target: T6, Prostaglandin G/H synthase 2 (Homo sapiens) (UniProt P35354); test: Inhibition of human COX2 at 4 uM for 17 mins pre-incubated before addition of [1-14C]arachidonic acid; settings: not given
T6 sequence (whole entry): T4 sequence (P35354 whole entry)

inhibition [%] | SMILES
< 20 | O=C(O)Cc1ccccc1Nc1ccccc1
< 20 | O=C(O)Cc1ccccc1Nc1ccccc1Cl
< 20 | Cc1ccc(Nc2ccccc2Cl)c(CC(=O)O)c1

The remaining lines, values behind:

SMILES | inhibition [%]
Cc1ccc(Nc2c(F)cccc2F)c(CC(=O)O)c1 | < 20
Cc1cccc(F)c1Nc1ccccc1CC(=O)O | < 20
Cc1ccc(Nc2ccccc2F)c(CC(=O)O)c1 | < 20
